Legend:
Experiment in all cases: relative viability (nuclei count vs DMSO), 5 days (fraction); higher = more cells survive
NCI-H1734 = system: NCI-H1734
Procedure, shortened: (§1)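 Five library-drug doses in √10 steps were combined with a fixed anchor-drug dose, or a single drug was given alone, by pin tool to lung cancer cell lines in 1536-well plates the day after seeding. Nuclei were stained and counted after 5 days. Relative viability is the nuclei count in treated wells over that in vehicle wells, taken as the median of duplicate plates.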

BEN = system: BEN
Procedure, shortened: as §1

LK-2 = system: LK-2
Procedure, shortened: as §1

NCI-H1792 = system: NCI-H1792
Procedure, shortened: as §1

SW 1573 = system: SW 1573
Procedure, shortened: as §1

RERF-LC-KJ = system: RERF-LC-KJ
Procedure, shortened: as §1

NCI-H1944 = system: NCI-H1944
Procedure, shortened: as §1

NCI-H1650 = system: NCI-H1650
Procedure, shortened: as §1

EKVX = system: EKVX
Procedure, shortened: as §1

NCI-H358 = system: NCI-H358
Procedure, shortened: as §1

LCLC-97TM1 = system: LCLC-97TM1
Procedure, shortened: as §1

NCI-H2087 = system: NCI-H2087
Procedure, shortened: as §1

O=C(O)CCCCC(CCSCc1ccccc1)SCc1ccccc1 (configuration not stated) [CPI-613] + O=C(c1cc(Cc2n[nH]c(=O)c3ccccc23)ccc1F)N1CCN(C(=O)C2CC2)CC1 [Olaparib] (partner 8 µM)
relative viability (NCI-H1734; first compound 50 µM): 0.516
relative viability (NCI-H1734; first compound 158.11 µM): 0.373
relative viability (NCI-H1734; first compound 500 µM): 0.173
relative viability (BEN; first compound 5 µM): 1.09
relative viability (BEN; first compound 15.81 µM): 0.853
relative viability (BEN; first compound 50 µM): 0.909
relative viability (BEN; first compound 158.11 µM): 0.786
relative viability (BEN; first compound 500 µM): 0.931
relative viability (LK-2; first compound 5 µM): 0.714
relative viability (LK-2; first compound 15.81 µM): 0.702
relative viability (LK-2; first compound 50 µM): 0.749
relative viability (LK-2; first compound 158.11 µM): 0.796
relative viability (LK-2; first compound 500 µM): 0.736
relative viability (NCI-H1792; first compound 5 µM): 0.391
relative viability (NCI-H1792; first compound 15.81 µM): 0.358
relative viability (NCI-H1792; first compound 50 µM): 0.328
relative viability (NCI-H1792; first compound 158.11 µM): 0.0603
relative viability (NCI-H1792; first compound 500 µM): 0.087
relative viability (SW 1573; first compound 5 µM): 0.442
relative viability (SW 1573; first compound 15.81 µM): 0.395
relative viability (SW 1573; first compound 50 µM): 0.406
relative viability (SW 1573; first compound 158.11 µM): 0.135
relative viability (SW 1573; first compound 500 µM): 0.071
relative viability (RERF-LC-KJ; first compound 5 µM): 0.979
relative viability (RERF-LC-KJ; first compound 15.81 µM): 0.83
relative viability (RERF-LC-KJ; first compound 50 µM): 0.804
relative viability (RERF-LC-KJ; first compound 158.11 µM): 0.273
relative viability (RERF-LC-KJ; first compound 500 µM): 0.133
relative viability (NCI-H1944; first compound 5 µM): 0.404
relative viability (NCI-H1944; first compound 15.81 µM): 0.401
relative viability (NCI-H1944; first compound 50 µM): 0.491
relative viability (NCI-H1944; first compound 158.11 µM): 0.288
relative viability (NCI-H1944; first compound 500 µM): 0.383
relative viability (NCI-H1650; first compound 5 µM): 0.728
relative viability (NCI-H1650; first compound 15.81 µM): 0.791
relative viability (NCI-H1650; first compound 50 µM): 0.749
relative viability (NCI-H1650; first compound 158.11 µM): 0.416
relative viability (NCI-H1650; first compound 500 µM): 0.0224
relative viability (EKVX; first compound 5 µM): 0.756
relative viability (EKVX; first compound 15.81 µM): 0.862
relative viability (EKVX; first compound 50 µM): 0.856
relative viability (EKVX; first compound 500 µM): 0.802
relative viability (NCI-H358; first compound 5 µM): 0.532
relative viability (NCI-H358; first compound 15.81 µM): 0.518
relative viability (NCI-H358; first compound 50 µM): 0.572
relative viability (NCI-H358; first compound 158.11 µM): 0.126
relative viability (NCI-H358; first compound 500 µM): 0.112
relative viability (LCLC-97TM1; first compound 5 µM): 0.322
relative viability (LCLC-97TM1; first compound 15.81 µM): 0.287
relative viability (LCLC-97TM1; first compound 50 µM): 0.372
relative viability (LCLC-97TM1; first compound 158.11 µM): 0.183
relative viability (LCLC-97TM1; first compound 500 µM): 0.191
relative viability (NCI-H2087; first compound 5 µM): 0.517
relative viability (NCI-H2087; first compound 15.81 µM): 0.522
relative viability (NCI-H2087; first compound 50 µM): 0.627
relative viability (NCI-H2087; first compound 158.11 µM): 0.0403
relative viability (NCI-H2087; first compound 500 µM): 0.0077
